Read-outs that look alike come from different tables or passages of the source.
Tests used:
Experiment in all cases: biochemical
Design in all cases: KINOMEscan active site-directed competition binding assay (DiscoveRx), 456 kinases, per cent of control at 300 nM
Conditions in all cases: read-out: Percent of Control (%)
[1] = target: T1, YES (Homo sapiens, UniProt P07947)
T1 construct: gene YES1
Procedure, shortened: (§1)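 At 300 nmol/L, compounds were assessed for kinase binding in an active site-directed competition format covering 456 kinases.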

[2] = target: SYK (Homo sapiens, UniProt P43405)
Procedure, shortened: as §1

[3] = target: T2, CTK (Homo sapiens, UniProt P42679)
T2 construct: gene MATK
Procedure, shortened: as §1

[4] = target: AURKA (Homo sapiens, UniProt O14965)
Procedure, shortened: as §1

[5] = target: CSNK1G2 (Homo sapiens, UniProt P78368)
Procedure, shortened: as §1

[6] = target: EGFR(L747-S752del, P753S) (Homo sapiens, UniProt P00533, DEL747-752/P753S)
Procedure, shortened: as §1

[7] = target: CAMK2G (Homo sapiens, UniProt Q13555)
Procedure, shortened: as §1

[8] = target: BRSK1 (Homo sapiens, UniProt Q8TDC3)
Sequence of BRSK1 (Q8TDC3 whole entry): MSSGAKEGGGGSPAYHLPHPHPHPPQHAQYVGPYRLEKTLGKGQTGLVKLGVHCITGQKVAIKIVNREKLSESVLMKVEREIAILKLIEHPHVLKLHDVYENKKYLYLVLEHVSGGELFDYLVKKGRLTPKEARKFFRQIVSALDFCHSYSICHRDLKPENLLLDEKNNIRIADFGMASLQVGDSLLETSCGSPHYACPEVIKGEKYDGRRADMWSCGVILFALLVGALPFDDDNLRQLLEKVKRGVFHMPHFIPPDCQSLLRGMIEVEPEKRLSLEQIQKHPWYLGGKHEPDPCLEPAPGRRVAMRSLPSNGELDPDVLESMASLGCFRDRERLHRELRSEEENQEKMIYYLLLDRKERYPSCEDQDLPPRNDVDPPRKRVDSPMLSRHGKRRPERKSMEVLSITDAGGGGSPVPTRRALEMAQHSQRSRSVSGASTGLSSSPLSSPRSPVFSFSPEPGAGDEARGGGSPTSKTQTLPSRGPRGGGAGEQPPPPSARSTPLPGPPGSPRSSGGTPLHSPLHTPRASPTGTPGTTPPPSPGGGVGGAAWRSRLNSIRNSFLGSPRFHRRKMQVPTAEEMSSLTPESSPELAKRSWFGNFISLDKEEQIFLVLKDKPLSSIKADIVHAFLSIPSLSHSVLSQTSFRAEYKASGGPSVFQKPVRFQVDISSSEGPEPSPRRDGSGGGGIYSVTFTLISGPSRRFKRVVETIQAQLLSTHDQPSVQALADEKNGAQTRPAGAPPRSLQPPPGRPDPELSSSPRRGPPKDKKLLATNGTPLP
Procedure, shortened: as §1

[9] = target: CSNK1D (Homo sapiens, UniProt P48730)
Sequence of CSNK1D (P48730 whole entry): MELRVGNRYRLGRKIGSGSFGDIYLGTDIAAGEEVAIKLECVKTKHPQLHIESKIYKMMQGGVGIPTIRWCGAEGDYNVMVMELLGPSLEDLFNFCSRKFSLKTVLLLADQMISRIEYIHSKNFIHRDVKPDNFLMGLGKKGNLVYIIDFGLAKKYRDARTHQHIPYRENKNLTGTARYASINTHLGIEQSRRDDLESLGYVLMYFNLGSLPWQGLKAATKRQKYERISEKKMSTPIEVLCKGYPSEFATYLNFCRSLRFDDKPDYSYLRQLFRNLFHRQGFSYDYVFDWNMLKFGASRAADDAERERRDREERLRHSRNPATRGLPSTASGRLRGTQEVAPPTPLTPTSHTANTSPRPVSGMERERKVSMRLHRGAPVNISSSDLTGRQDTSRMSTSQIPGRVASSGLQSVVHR
Procedure, shortened: as §1

[10] = target: T3, PKAC-beta (Homo sapiens, UniProt P22694)
T3 construct: gene PRKACB
Procedure, shortened: as §1

[11] = target: RET (Homo sapiens, UniProt P07949)
Sequence of RET (P07949 whole entry): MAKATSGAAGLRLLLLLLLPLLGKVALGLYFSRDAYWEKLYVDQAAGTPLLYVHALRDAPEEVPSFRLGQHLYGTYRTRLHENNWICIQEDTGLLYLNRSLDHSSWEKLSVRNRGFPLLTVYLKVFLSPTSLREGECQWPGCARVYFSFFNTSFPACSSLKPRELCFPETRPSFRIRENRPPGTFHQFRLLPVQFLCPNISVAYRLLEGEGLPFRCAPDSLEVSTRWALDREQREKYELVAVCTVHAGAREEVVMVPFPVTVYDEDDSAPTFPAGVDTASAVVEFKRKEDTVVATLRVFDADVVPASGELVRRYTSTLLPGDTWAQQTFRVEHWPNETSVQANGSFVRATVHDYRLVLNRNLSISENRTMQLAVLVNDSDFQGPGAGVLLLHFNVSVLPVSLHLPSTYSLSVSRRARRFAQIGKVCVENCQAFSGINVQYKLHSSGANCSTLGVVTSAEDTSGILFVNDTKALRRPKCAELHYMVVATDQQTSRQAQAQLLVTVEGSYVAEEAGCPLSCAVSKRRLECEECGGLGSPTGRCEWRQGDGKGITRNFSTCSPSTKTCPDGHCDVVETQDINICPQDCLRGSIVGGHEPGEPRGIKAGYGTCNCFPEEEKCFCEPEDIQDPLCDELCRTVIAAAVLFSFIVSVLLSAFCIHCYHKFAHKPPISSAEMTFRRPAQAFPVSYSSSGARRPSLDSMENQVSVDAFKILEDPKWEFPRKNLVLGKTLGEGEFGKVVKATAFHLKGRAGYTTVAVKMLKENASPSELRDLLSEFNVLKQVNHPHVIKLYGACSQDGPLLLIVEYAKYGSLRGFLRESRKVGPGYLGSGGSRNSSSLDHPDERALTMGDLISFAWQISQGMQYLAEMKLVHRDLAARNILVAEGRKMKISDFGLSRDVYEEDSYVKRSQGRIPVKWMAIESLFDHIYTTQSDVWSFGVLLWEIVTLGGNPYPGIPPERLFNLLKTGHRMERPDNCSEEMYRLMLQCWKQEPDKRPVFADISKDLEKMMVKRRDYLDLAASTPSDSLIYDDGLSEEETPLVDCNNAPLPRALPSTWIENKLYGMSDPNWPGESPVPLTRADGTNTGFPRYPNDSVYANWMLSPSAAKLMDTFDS
Procedure, shortened: as §1

[12] = target: T4, MKK7 (Homo sapiens, UniProt O14733)
T4 construct: gene MAP2K7
Procedure, shortened: as §1

[13] = target: RET(V804L) (Homo sapiens, UniProt P07949, V804L)
Sequence of RET(V804L) (P07949 whole entry V804L): as the sequence (P07949 whole entry) above, with V804L counted along it
Procedure, shortened: as §1

[14] = target: ULK1 (Homo sapiens, UniProt O75385)
Procedure, shortened: as §1

[15] = target: TTK (Homo sapiens, UniProt P33981)
Procedure, shortened: as §1

[16] = target: LATS2 (Homo sapiens, UniProt Q9NRM7)
Procedure, shortened: as §1

[17] = target: FLT3(K663Q) (Homo sapiens, UniProt P36888, K663Q)
Procedure, shortened: as §1

[18] = target: MAPKAPK2 (Homo sapiens, UniProt P49137)
Procedure, shortened: as §1

[19] = target: EGFR(G719C) (Homo sapiens, UniProt P00533, G719C)
Sequence of EGFR(G719C) (P00533 whole entry G719C): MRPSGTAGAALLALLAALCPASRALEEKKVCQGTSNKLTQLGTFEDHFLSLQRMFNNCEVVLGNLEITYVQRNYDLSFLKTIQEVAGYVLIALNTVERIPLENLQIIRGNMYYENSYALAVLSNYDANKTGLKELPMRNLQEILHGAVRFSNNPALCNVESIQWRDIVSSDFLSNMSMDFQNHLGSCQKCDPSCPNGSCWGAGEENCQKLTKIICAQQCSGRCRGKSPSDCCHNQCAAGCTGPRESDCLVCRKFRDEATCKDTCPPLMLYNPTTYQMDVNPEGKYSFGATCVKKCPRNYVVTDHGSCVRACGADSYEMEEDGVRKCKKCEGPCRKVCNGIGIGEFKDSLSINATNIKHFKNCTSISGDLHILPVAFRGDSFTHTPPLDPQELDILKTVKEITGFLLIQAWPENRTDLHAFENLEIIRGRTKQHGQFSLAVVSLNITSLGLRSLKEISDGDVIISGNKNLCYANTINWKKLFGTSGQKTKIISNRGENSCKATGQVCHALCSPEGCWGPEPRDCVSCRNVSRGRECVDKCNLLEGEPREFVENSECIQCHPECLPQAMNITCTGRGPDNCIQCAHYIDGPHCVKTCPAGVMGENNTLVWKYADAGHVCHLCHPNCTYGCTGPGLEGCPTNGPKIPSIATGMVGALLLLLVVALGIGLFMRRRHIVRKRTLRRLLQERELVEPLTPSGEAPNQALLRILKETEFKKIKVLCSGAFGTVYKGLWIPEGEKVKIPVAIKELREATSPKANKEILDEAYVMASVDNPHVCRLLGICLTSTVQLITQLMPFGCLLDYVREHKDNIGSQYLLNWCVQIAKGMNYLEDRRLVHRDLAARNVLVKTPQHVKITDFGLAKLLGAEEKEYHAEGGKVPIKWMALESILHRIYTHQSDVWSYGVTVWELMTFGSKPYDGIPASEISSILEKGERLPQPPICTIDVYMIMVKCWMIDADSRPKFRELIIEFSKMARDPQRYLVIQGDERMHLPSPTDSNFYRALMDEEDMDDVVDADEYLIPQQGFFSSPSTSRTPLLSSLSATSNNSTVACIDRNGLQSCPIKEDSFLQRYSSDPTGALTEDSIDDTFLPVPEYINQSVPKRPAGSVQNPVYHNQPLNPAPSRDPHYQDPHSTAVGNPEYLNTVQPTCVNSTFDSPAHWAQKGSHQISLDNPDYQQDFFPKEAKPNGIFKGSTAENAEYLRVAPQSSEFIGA
Procedure, shortened: as §1

[20] = target: T5, AMPK-alpha1 (Homo sapiens, UniProt Q13131)
T5 construct: gene PRKAA1
Procedure, shortened: as §1

[21] = target: T6, VEGFR2 (Homo sapiens, UniProt P35968)
T6 construct: gene KDR
T6 sequence (P35968 whole entry): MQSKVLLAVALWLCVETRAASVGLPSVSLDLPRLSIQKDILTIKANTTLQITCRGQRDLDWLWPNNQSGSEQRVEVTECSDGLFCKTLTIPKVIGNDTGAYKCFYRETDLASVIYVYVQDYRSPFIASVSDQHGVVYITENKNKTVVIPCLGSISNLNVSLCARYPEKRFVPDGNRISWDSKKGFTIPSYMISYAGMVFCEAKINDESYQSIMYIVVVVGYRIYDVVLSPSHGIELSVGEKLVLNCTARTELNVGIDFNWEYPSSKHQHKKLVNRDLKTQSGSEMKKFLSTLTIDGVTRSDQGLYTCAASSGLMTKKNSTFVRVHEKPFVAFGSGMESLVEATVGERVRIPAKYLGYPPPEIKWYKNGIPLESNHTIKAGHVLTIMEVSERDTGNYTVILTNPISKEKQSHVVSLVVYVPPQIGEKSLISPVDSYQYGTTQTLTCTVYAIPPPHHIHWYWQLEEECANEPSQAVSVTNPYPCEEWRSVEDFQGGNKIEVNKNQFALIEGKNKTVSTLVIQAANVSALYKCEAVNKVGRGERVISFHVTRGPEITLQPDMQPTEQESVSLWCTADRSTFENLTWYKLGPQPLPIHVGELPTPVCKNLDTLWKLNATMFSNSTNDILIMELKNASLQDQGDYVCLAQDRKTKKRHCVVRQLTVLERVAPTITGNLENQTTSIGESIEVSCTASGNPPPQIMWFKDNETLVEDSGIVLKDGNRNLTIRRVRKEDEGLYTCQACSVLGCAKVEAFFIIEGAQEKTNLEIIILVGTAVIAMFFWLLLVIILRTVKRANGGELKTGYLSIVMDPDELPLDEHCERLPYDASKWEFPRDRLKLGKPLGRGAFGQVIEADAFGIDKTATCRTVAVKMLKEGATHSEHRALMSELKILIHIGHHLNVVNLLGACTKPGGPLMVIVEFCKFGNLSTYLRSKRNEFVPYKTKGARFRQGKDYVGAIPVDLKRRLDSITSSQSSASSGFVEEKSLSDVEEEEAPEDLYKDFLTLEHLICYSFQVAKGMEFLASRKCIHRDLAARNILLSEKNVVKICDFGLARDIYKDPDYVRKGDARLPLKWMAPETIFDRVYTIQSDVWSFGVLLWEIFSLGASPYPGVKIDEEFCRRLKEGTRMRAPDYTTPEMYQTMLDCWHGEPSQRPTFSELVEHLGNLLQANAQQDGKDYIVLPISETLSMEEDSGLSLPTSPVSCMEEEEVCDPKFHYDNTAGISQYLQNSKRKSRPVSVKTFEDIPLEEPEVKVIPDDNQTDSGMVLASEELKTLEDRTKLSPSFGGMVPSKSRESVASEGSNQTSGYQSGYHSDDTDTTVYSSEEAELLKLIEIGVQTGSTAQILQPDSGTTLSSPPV
Procedure, shortened: as §1

[22] = target: CDKL3 (Homo sapiens, UniProt Q8IVW4)
Procedure, shortened: as §1

With `Cc1ncccc1Oc1sc(C(N)=O)c2c1-c1c(cnn1C)CC2` [T-474, 1-methyl-8-((2-methylpyridin-3-yl)oxy)-4,5-dihydro-1H-thieno[3,4-g]indazole-6-carboxamide] the remaining binding at 0.3 µM [1] was 100%, the remaining binding at 0.3 µM [2] was 100% and the remaining binding at 0.3 µM [3] was 100%. It also gave a remaining binding at 0.3 µM [4] of 100%, a remaining binding at 0.3 µM [5] of 90% and a remaining binding at 0.3 µM [6] of 61%. For the same molecule, the remaining binding at 0.3 µM [7] was 97%, the remaining binding at 0.3 µM [8] was 100% and the remaining binding at 0.3 µM [9] was 61%. It also gave a remaining binding at 0.3 µM [10] of 100%, a remaining binding at 0.3 µM [11] of 100% and a remaining binding at 0.3 µM [12] of 100%. The remaining binding at 0.3 µM [13] was 94%, the remaining binding at 0.3 µM [14] was 43% and the remaining binding at 0.3 µM [15] was 97%. It also gave a remaining binding at 0.3 µM [16] of 100%, a remaining binding at 0.3 µM [17] of 100% and a remaining binding at 0.3 µM [18] of 100%. It also gave a remaining binding at 0.3 µM [19] of 99%, a remaining binding at 0.3 µM [20] of 100% and a remaining binding at 0.3 µM [21] of 100%. For the same molecule, the remaining binding at 0.3 µM [22] was 96%.

`O=C(/C=C/c1cnccc1-c1ccc(F)cc1)Nc1ccc(CCc2nnco2)cc1` [T-418, (2E)-3-(4-(4-fluorophenyl)pyridin-3-yl)-N-(4-(2-(1,3,4-oxadiazol-2-yl)ethyl)phenyl)acrylamide] was tested, and the remaining binding at 0.3 µM ([1]; sheet T-418) was 100%, the remaining binding at 0.3 µM ([2]; sheet T-418) was 100% and the remaining binding at 0.3 µM ([3]; sheet T-418) was 100%. The remaining binding at 0.3 µM ([4]; sheet T-418) was 100%, the remaining binding at 0.3 µM ([5]; sheet T-418) was 100% and the remaining binding at 0.3 µM ([6]; sheet T-418) was 87%. For the same molecule, the remaining binding at 0.3 µM ([7]; sheet T-418) was 94%, the remaining binding at 0.3 µM ([8]; sheet T-418) was 100% and the remaining binding at 0.3 µM ([9]; sheet T-418) was 84%. The remaining binding at 0.3 µM ([10]; sheet T-418) was 88%, the remaining binding at 0.3 µM ([11]; sheet T-418) was 63% and the remaining binding at 0.3 µM ([12]; sheet T-418) was 100%. For the same molecule, the remaining binding at 0.3 µM ([13]; sheet T-418) was 81%, the remaining binding at 0.3 µM ([14]; sheet T-418) was 41% and the remaining binding at 0.3 µM ([15]; sheet T-418) was 90%. For the same molecule, the remaining binding at 0.3 µM ([16]; sheet T-418) was 100%, the remaining binding at 0.3 µM ([17]; sheet T-418) was 100% and the remaining binding at 0.3 µM ([18]; sheet T-418) was 100%. It also gave a remaining binding at 0.3 µM ([19]; sheet T-418) of 72%, a remaining binding at 0.3 µM ([20]; sheet T-418) of 100% and a remaining binding at 0.3 µM ([21]; sheet T-418) of 100%. For the same molecule, the remaining binding at 0.3 µM ([22]; sheet T-418) was 78%.
